Tests used:
[1] = test system: C. albicans SC3514 (wild type) yeast-to-hypha transition; experiment: Inhibition of yeast-to-hypha transition in optical microplates, monitored by microscopy; assay type: cell-based, Candida albicans
Text: (§1) A simple in vitro assay system was designed to detect inhibition of the yeast-to-filamentous growth transition in C. albicans. In this assay, C. albicans cells are first grown under conditions that maintain them in a yeast growth form. The yeast-form cells are then transferred to the wells of an optical microplate containing (i) a medium that induces either the yeast-to-hypha transition (in wild type cells) or the yeast-to-pseudohypha transition (in a conditional pseudohyphal mutant strain) and (ii) varying concentrations of BH3I-1 (typically 0, 10, 30, 50, 100 and 200 μM BH3I-1). The plates are incubated for up to six hours at 37° C. (to test for the hyphal transition) or up to 24 hours 30° C. (to test for the pseudohyphal transition). The transition to filamentous growth (or lack thereof) is monitored in the optical microplates directly with a Nikon TE200 inverted microscope.
(§2) C. albicans SC3514 was used as the “wild type” strain to monitor the yeast-to-hypha transition. A “conditional pseudohyphal mutant” strain was used to monitor the yeast-to-pseudohypha transition. The conditional strain harbors deletions of both native GRR1 alleles plus an introduced wild type copy of GRR1 under the control of the regulatable MET3 promoter. Deletion of GRR1 was previously found to cause pseudohyphal growth.
(§3) Standard yeast growth media were used for these experiments. To maintain wild type cells in the yeast-form, cells were grown in YPD medium (1% Yeast Extract, 2% Peptone and 2% Dextrose) at 30° C. To induce hyphal growth in the wild type strain, cells were transferred to Spider medium (1% Nutrient broth, 1% mannitol, […]) at 37° C. or to Lee's medium (0.5% (NH4)SO4, 0.02% MgSO4, 0.5% NaCl, 1.25% glucose, supplemented with alanine, leucine, lysine, ornithine, phenylalanine threonine and biotin) at 37° C. To maintain the conditional pseudohyphal mutant strain in the yeast-form, cells were grown in YNB medium (Yeast Nitrogen Base, ammonium sulfate, succinic acid supplemented with the appropriate amino acids) at 30° C. […]

[2] = test system: C. albicans conditional pseudohyphal mutant (grr1/grr1, MET3p-driven GRR1) yeast-to-pseudohypha transition; experiment: Inhibition of yeast-to-pseudohypha transition in optical microplates, monitored by microscopy; assay type: cell-based, Candida albicans
Text: as §1, §2, §3

## CC(C)C(C(=O)O)N1C(=O)C(=Cc2ccc(Br)cc2)SC1=S (stereo not drawn) [BH3I-1, 5-(p-Bromobenzylidine)-α-isopropyl-4-oxo-2-thioxo-3-thiozolidineacetic acid]
[1]; wild type SC3514, both hyphal-inducing media (Spider medium, Lee's medium), 37° C.
  minimum inhibitory concentration (MIC) for the yeast-to-hypha transition: 50 to 100 µM
[1]; wild type SC3514, hyphal-inducing media
  growth of treated cells in hyphal-inducing media: continued to divide as yeast cells
[1]; wild type SC3514 transferred from YPD medium to Spider medium or Lee's medium
  yeast-to-hypha transition of treated cells: failed to undergo the yeast-to-hypha transition
[2]; conditional pseudohyphal mutant transferred from YNB medium to YNB plus methionine/cysteine medium
  yeast-to-pseudohypha transition of treated cells: failed to undergo the yeast-to-pseudohypha transition
[2]; conditional pseudohyphal mutant, YNB plus methionine/cysteine medium, 30° C.
  MIC for the yeast-to-pseudohypha transition: 100 µM
[2]; conditional pseudohyphal mutant, pseudohyphal-inducing medium
  growth of treated cells in pseudohyphal-inducing medium: continued to divide as yeast cells
